Measured values taken from ChEMBL document CHEMBL5653599, “AZD1152, a novel and selective aurora B kinase inhibitor, induces growth arrest, apoptosis, and sensitization for tubulin depolymerizing agent or topoisomerase II inhibitor in human acute leukemia cells in vitro and in vivo” (Blood, 2007).
Active and inactive are the calls of the source. The calls are words filed in the database; no cut-off is given here.

How the values were obtained:
[1] = Inhibition of cell proliferation of human PALL-2 cells incubated for 48 hrs by 3H-thymidine uptake assay; assay type: functional, cell-based
[2] = tested on: MOLM-13; test: Inhibition of cell proliferation of human MOLM-13 cells incubated for 48 hrs by 3H-thymidine uptake assay; assay type: functional, cell-based
[3] = tested on: MV4-11; test: Inhibition of cell proliferation of human MV4-11 cells incubated for 48 hrs by 3H-thymidine uptake assay; assay type: functional, cell-based
[4] = tested on: MOLM-13; test: Inhibition of clonogenic growth in human MOLM-13 cells incubated for 10 days; assay type: functional, cell-based; conditions: MOLM-13, 240 h
[5] = tested on: MV4-11; test: Inhibition of clonogenic growth in human MV4-11 cells incubated for 10 days; assay type: functional, cell-based; conditions: MV4-11, 240 h
[6] = tested on: MOLM-13; test: Induction of apoptosis in human MOLM-13 cells assessed as early apoptotic cells at 1 nM incubated for 24 hrs by annexin V/PI staining based flow cytometry (reference value: 2.4 %); assay type: functional
[7] = tested on: MOLM-13; test: Induction of apoptosis in human MOLM-13 cells assessed as early apoptotic cells at 3 nM incubated for 24 hrs by annexin V/PI staining based flow cytometry (reference value: 2.4 %); assay type: functional
[8] = tested on: MOLM-13; test: Induction of apoptosis in human MOLM-13 cells assessed as early apoptotic cells at 10 nM incubated for 24 hrs by annexin V/PI staining based flow cytometry (reference value: 2.4 %); assay type: functional
[9] = tested on: MOLM-13; test: Induction of apoptosis in human MOLM-13 cells assessed as late apoptotic cells at 1 nM incubated for 24 hrs by annexin V/PI staining based flow cytometry (reference value: 2.2 %); assay type: functional
[10] = tested on: MOLM-13; test: Induction of apoptosis in human MOLM-13 cells assessed as late apoptotic cells at 3 nM incubated for 24 hrs by annexin V/PI staining based flow cytometry (reference value: 2.2 %); assay type: functional
[11] = tested on: MOLM-13; test: Induction of apoptosis in human MOLM-13 cells assessed as late apoptotic cells at 10 nM incubated for 24 hrs by annexin V/PI staining based flow cytometry (reference value: 2.2 %); assay type: functional
[12] = tested on: MOLM-13; test: Induction of apoptosis in human MOLM-13 cells assessed as early apoptotic cells at 1 nM incubated for 48 hrs by annexin V/PI staining based flow cytometry (reference value: 3.2 %); assay type: functional
[13] = tested on: MOLM-13; test: Induction of apoptosis in human MOLM-13 cells assessed as early apoptotic cells at 3 nM incubated for 48 hrs by annexin V/PI staining based flow cytometry (reference value: 3.2 %); assay type: functional
[14] = tested on: MOLM-13; test: Induction of apoptosis in human MOLM-13 cells assessed as early apoptotic cells at 10 nM incubated for 48 hrs by annexin V/PI staining based flow cytometry (reference value: 3.2 %); assay type: functional
[15] = tested on: MOLM-13; test: Induction of apoptosis in human MOLM-13 cells assessed as late apoptotic cells at 1 nM incubated for 48 hrs by annexin V/PI staining based flow cytometry (reference value: 1.9 %); assay type: functional
[16] = tested on: MOLM-13; test: Induction of apoptosis in human MOLM-13 cells assessed as late apoptotic cells at 3 nM incubated for 48 hrs by annexin V/PI staining based flow cytometry (reference value: 1.9 %); assay type: functional
[17] = tested on: MOLM-13; test: Induction of apoptosis in human MOLM-13 cells assessed as late apoptotic cells at 10 nM incubated for 48 hrs by annexin V/PI staining based flow cytometry (reference value: 1.9 %); assay type: functional
[18] = Antiproliferative activity against human PALL-2 cells assessed as inhibition of cell proliferation at 3 nM by 3H-thymidine incorporation assay relative to control; assay type: functional
[19] = Synergistic antiproliferative activity against human PALL-2 cells assessed as inhibition of cell proliferation at 0.3 to 3 nM in presence of vincristine by 3H-thymidine incorporation assay relative to control; assay type: functional; conditions: dose 0.3-3 nM
[20] = tested on: PALL-2; test: Induction of apoptosis in human PALL-2 cells assessed as increase in cleaved PARP level at 1 to 3 nM in presence of vincristine by immunoblot analysis; assay type: functional, cell-based; conditions: dose 1-3 nM
[21] = tested on: MOLM-13; test: Induction of apoptosis in human MOLM-13 cells assessed as increase in cleaved PARP level at 1 to 3 nM in presence of vincristine by immunoblot analysis; assay type: functional, cell-based; conditions: dose 1-3 nM
[22] = tested on: MOLM-13; test: Induction of apoptosis in human MOLM-13 cells assessed as increase in cleaved PARP level at 3 to 10 nM in presence of daunorubicin by immunoblot analysis; assay type: functional, cell-based; conditions: dose 3-10 nM
[23] = biological target: Aurora kinase B (Homo sapiens) (UniProt Q96GD4); conditions: MOLM-13, dose <= 10.0 nM, time 24-48 hrs
Chain of Aurora kinase B (Homo sapiens) (Q96GD4 whole entry): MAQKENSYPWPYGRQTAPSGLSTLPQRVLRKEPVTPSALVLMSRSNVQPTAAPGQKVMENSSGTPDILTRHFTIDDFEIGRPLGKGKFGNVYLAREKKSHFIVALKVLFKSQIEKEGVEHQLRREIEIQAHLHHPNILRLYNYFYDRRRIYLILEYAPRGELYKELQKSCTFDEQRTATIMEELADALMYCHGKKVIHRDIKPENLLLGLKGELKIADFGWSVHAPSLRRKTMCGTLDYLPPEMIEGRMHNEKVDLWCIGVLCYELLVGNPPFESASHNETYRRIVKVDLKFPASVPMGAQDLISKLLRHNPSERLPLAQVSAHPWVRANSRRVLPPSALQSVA
Description: Inhibition of Aurora B in human MOLM-13 cells assessed as increase in 4N/8N DNA content measured for 24 to 48 hrs by FACS analysis

[24] = biological target: Aurora kinase B (Homo sapiens) (UniProt Q96GD4); conditions: MOLM-13, dose <= 10.0 nM, time 24-48 hrs; remark: listed apart in the source
Description: Inhibition of Aurora B in human MOLM-13 cells assessed as increase in 4N/8N DNA content upto 10 nM by FACS analysis

[25] = biological target: Aurora kinase B (Homo sapiens) (UniProt Q96GD4); conditions: PALL-2, dose <= 10.0 nM, time 24-48 hrs
Description: Inhibition of Aurora B in human PALL-2 cells assessed as increase in 4N/8N DNA content measured for 24 to 48 hrs by FACS analysis

[26] = biological target: Aurora kinase B (Homo sapiens) (UniProt Q96GD4); conditions: PALL-2, dose <= 10.0 nM, time 24-48 hrs; remark: listed apart in the source
Description: Inhibition of Aurora B in human PALL-2 cells assessed as increase in 4N/8N DNA content upto 10 nM by FACS analysis

[27] = tested on: MOLM-13; conditions: Homo sapiens, dose 1-10 nM
[28] = tested on: MOLM-13; conditions: Homo sapiens, dose 1.0 nM
[29] = biological target: Aurora kinase B (Homo sapiens) (UniProt Q96GD4); test: Inhibition of Aurora B in human MOLM-13 cells assessed as decrease in histone H3 phosphorylation at Ser10 at 10 nM incubated for 24 hrs by flow cytometry (reference value: 43 %); assay type: cell-based; parameters: scale not given: the % may be the effect or the level left
[30] = biological target: Aurora kinase B (Homo sapiens) (UniProt Q96GD4); test: Inhibition of Aurora B in human MV4-11 cells assessed as decrease in histone H3 phosphorylation at Ser10 at 10 nM incubated for 24 hrs by flow cytometry (reference value: 52 %); assay type: cell-based; parameters: scale not given: the % may be the effect or the level left
[31] = tested on: MOLM-13; test: Antitumor activity against human MOLM-13 cells xenografted in immunodeficient nude BALB/c mouse model assessed as suppression of tumor growth at 25 mg/kg, ip administered 4 times a week for 2 weeks measured twice per week; assay type: functional, organism-based
[32] = tested on: MOLM-13; test: Antitumor activity against human MOLM-13 cells xenografted in immunodeficient nude BALB/c mouse model assessed as suppression of tumor weight at 25 mg/kg, ip administered 4 times a week for 2 weeks measured twice per week; assay type: functional, organism-based
[33] = tested on: MOLM-13; test: Antitumor activity against human MOLM-13 cells xenografted in immunodeficient nude BALB/c mouse model assessed as decrease in tumor volume at 25 mg/kg, ip administered 4 times a week for 2 weeks measured twice per week (reference value: 1261 +/- 200 mm3); assay type: functional
[34] = tested on: MOLM-13; test: Antitumor activity against human MOLM-13 cells xenografted in immunodeficient nude BALB/c mouse model assessed as decrease in tumor weight at 25 mg/kg, ip administered 4 times a week for 2 weeks measured twice per week (reference value: 583 +/- 150 mg); assay type: functional
[35] = tested on: MOLM-13; test: Antitumor activity against human MOLM-13 cells xenografted in immunodeficient nude BALB/c mouse model assessed as necrotic tissue with infiltration of phagocytic cells at 25 mg/kg, ip administered 4 times a week for 2 weeks by H and E staining based analysis; assay type: functional, organism-based
[36] = tested on: MOLM-13; test: Antitumor activity against human MOLM-13 cells xenografted in immunodeficient nude BALB/c mouse model assessed as absence of leukemia cells at 25 mg/kg, ip administered 4 times a week for 2 weeks by H and E staining based analysis; assay type: functional, organism-based
[37] = tested on: MOLM-13; test: In vivo antiproliferative activity against human MOLM-13 cells xenografted in immunodeficient nude BALB/c mouse model assessed as inhibition of cell proliferation at 5 mg/kg, ip administered 4 times a week for 2 weeks relative to control; assay type: functional; conditions: MOLM-13, 336 h
[38] = tested on: MOLM-13; test: Antitumor activity against human MOLM-13 cells xenografted in immunodeficient nude BALB/c mouse model assessed as reduction in tumor weight at 5 mg/kg, ip administered 4 times a week for 2 weeks in presence of vincristine; assay type: functional, organism-based
[39] = tested on: MOLM-13; test: Antitumor activity against human MOLM-13 cells xenografted in immunodeficient nude BALB/c mouse model assessed as tumor growth inhibition at 5 mg/kg, ip administered 4 times a week for 2 weeks in presence of vincristine relative to control; assay type: functional; conditions: MOLM-13, 336 h
[40] = tested on: MOLM-13; test: Antitumor activity against human MOLM-13 cells xenografted in immunodeficient nude BALB/c mouse model assessed as reduction in tumor growth at 5 mg/kg, ip administered 4 times a week for 2 weeks in presence of daunorubicin; assay type: functional, organism-based
[41] = Toxicity in immunodeficient nude BALB/c mouse model xenografted with human MOLM-13 cells assessed as signs of body wasting at 25 mg/kg, ip administered 4 times a week for 2 weeks measured twice per week; assay type: organism-based; conditions: in vivo, 336 h
[42] = Toxicity in immunodeficient nude BALB/c mouse model xenografted with human MOLM-13 cells assessed as signs of toxicity at 25 mg/kg, ip administered 4 times a week for 2 weeks measured twice per week; assay type: organism-based; conditions: in vivo, 336 h
[43] = Toxicity in immunodeficient nude BALB/c mouse model xenografted with human MOLM-13 cells assessed as signs of body wasting at 5 mg/kg, ip administered 4 times a week for 2 weeks in presence of vincristine; assay type: organism-based; conditions: in vivo, 336 h
[44] = Antiproliferative activity against human PALL-2 cells assessed as inhibition of cell proliferation at 0.3 uM by 3H-thymidine incorporation assay relative to control; assay type: functional
[45] = tested on: PALL-2; test: Induction of apoptosis in human PALL-2 cells assessed as increase in cleaved PARP level by immunoblot analysis; assay type: functional, cell-based; conditions: dose 0.1-1 µM
[46] = tested on: MOLM-13; test: Induction of apoptosis in human MOLM-13 cells assessed as increase in cleaved PARP level by immunoblot analysis; assay type: functional, cell-based; conditions: dose 0.1-1 µM
[47] = tested on: MOLM-13; test: In vivo antiproliferative activity against human MOLM-13 cells xenografted in immunodeficient nude BALB/c mouse model assessed as inhibition of cell proliferation at 0.2 mg/kg, ip administered for 2 weeks on every another day for first week relative to control; assay type: functional; conditions: MOLM-13, 336 h
[48] = Toxicity in immunodeficient nude BALB/c mouse model xenografted with human MOLM-13 cells at 1 mg/kg, ip administered 6 times in 2 weeks; assay type: organism-based; conditions: in vivo, 336 h

CCN(CCO)CCCOc1ccc2c(Nc3cc(CC(=O)Nc4cccc(F)c4)[nH]n3)ncnc2c1 [DEFOSBARASERTIB]
IC50 [1]: 5 nM | IC50 [2]: 12 nM | IC50 [3]: 8 nM | IC50 [4]: 1 nM | IC50 [5]: 2.8 nM | Activity [6]: 3.1% | Activity [7]: 3.4% | Activity [8]: 6.5% | Activity [9]: 4.3% | Activity [10]: 3.8% | Activity [11]: 7.1% | Activity [12]: 1.9% | Activity [13]: 2.2% | Activity [14]: 36% | Activity [15]: 3.8% | Activity [16]: 3.5% | Activity [17]: 15% | inhibition at 0.003 µM [18]: ~35% | inhibition (INH) [19]: ~80% | Activity [20]: Active | Activity [21]: Active | Activity [22]: Active | inhibition [23]: Dose-Dependent Effect | inhibition [24]: Tde | inhibition [25]: Dose-Dependent Effect | inhibition [26]: Tde | inhibition [27]: Active | inhibition [28]: Active

CCN(CCCOc1ccc2c(Nc3cc(CC(=O)Nc4cccc(F)c4)[nH]n3)ncnc2c1)CCOP(=O)(O)O [BARASERTIB]
Activity [29]: 25% | Activity [30]: 19% | Activity [31]: Active | Activity [32]: Active | Activity [33]: 71 mm3 | Activity [34]: 78 mg | Activity [35]: Active | Activity [36]: Active | inhibition in vivo at 5 mg/kg [37]: ~50% | Activity [38]: Active | inhibition in vivo at 5 mg/kg [39]: ~100% | Activity [40]: Active

CCN(CCCOc1ccc2c(Nc3cc(CC(=O)Nc4cccc(F)c4)n[nH]3)ncnc2c1)CCOP(=O)(O)O [BARASERTIB]
Activity [41]: Non-Toxic | Activity [42]: Non-Toxic | Activity [43]: Non-Toxic

CC[C@]1(O)C[C@H]2CN(CCc3c([nH]c4ccccc34)[C@@](C(=O)OC)(c3cc4c(cc3OC)N(C=O)[C@H]3[C@@](O)(C(=O)OC)[C@H](OC(C)=O)[C@]5(CC)C=CCN6CC[C@]43[C@@H]65)C2)C1 [VINCRISTINE]
inhibition at 0.3 µM [44]: ~35% | Activity [45]: Dose-Dependent Effect | Activity [46]: Dose-Dependent Effect | inhibition in vivo at 0.2 mg/kg [47]: ~50%

COc1cccc2c1C(=O)c1c(O)c3c(c(O)c1C2=O)C[C@@](O)(C(C)=O)C[C@@H]3O[C@H]1C[C@H](N)[C@H](O)[C@H](C)O1 [DAUNORUBICIN]
Activity [48]: Toxic
